Where two headings read alike, the source gives them in different places.
Experiments:
[1] = target: T1, UHRF1 tandem Tudor domain (TTD) (Homo sapiens, UniProt Q96T88); assay: ITC binding to tandem Tudor domain of UHRF1
T1 construct: UHRF1 (aa 126–285); His (N, cleaved yes); made in house; host or cells: E. coli BL21 (DE3) Codon plus RIL
T1 sequence (Q96T88 126-285): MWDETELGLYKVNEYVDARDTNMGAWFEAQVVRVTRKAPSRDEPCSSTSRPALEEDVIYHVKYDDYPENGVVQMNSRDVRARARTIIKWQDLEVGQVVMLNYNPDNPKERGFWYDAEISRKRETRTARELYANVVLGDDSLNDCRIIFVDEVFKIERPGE
Description: (§1) The coding DNA fragments of following Tudor domains were cloned into pET28-MHL vector: SMN (aa 82–147), UHRF1 (aa 126–285), SMNDC1 (aa 53–130), TDRD3 (aa 554–611), SND1 (aa 650–910), TDRD2 (aa 327–420), FXR1 (aa 2–132), PHF1 (aa 28–87), SGF29 (aa 115–293), JMJD2A (aa 897–1101), 53BP1 (aa 1483–1606), SETDB1 (aa 190–410), LBR (aa 1–67), ZGPAT (aa 120–271). The coding regions of chromodomain of CBX7 (aa 8–62), PWWP domain of DNMT3A (aa 275–417), WD40 repeats of WDR5 (aa 24–334) and CW domain of ZCWPW2 (aa 21–78) were also subcloned into pET28-MHL vector to generate N-terminally His-tagged fusion protein. The MBT repeats of L3MBTL1 (aa 200–522) and L3MBTL2 (aa 170–625) were subcloned into pET28GST-LIC vector to generate N-terminally GST-His-tagged fusion protein. All the plasmids were generated by ligase independent cloning (Vazyme Biotech, C112 or ABclonal Technology, RK21020). […] The proteins were further purified by Superdex75 or Superdex200 gel-filtration column (GE Healthcare) in a buffer containing 20 mM Tris-HCl, pH 7.5, 150 mM NaCl and 1 mM DTT. For crystallization experiments, purified proteins were concentrated to 18 mg/mL for SMN, 23 mg/mL for UHRF1 and 10 mg/mL for TDRD3 in the gel-filtration buffer. All the mutations were introduced with the QuikChange II XL site-directed mutagenesis kit (Stratagene, 200522) and confirmed by DNA sequencing. Mutant proteins were also expressed in E. coli BL21 (DE3) Codon plus RIL and purified using the same procedures described above. The molecular weight of all protein samples was measured by mass spectrometry.
(§2) For the ITC measurement, the concentrated proteins were diluted into 20 mM Tris-HCl, pH 7.5, 150 mM NaCl (ITC buffer); the lyophilized compounds were dissolved in the same buffer, and the pH value was adjusted by adding 2 M NaOH or 2 M HCl. The compounds that could not be dissolved in the ITC buffer were dissolved in DMSO with the accessible highest concentration. Compound concentrations were calculated from the mass and the volume of the solvent. For the ITC assay with compound dissolved in DMSO, the protein was diluted by ITC buffer containing same final concentration of DMSO. All measurements were performed in duplicate at 25 °C, using a VP-ITC (MicroCal, Inc.), an iTC-200 (MicroCal, Inc.), or a Nano-ITC (TA, Inc.) microcalorimeter. The protein with a concentration of 50–100 μM was placed in the cell chamber, and the compounds with a concentration of 0.5–2 mM in syringe was injected in 25, 20, or 20 successive injections with a spacing of 180, 150, or 120 s for VP-ITC, iTC-200, or Nano-ITC, respectively, as previously described[30]–[32]. iTC-200 or Nano-ITC data were consistent with those from the VP-ITC instrument, based on ITC results of SMN-compound 1 detected by using all the instruments. Control experiments were performed under identical conditions to determine the heat signals that arise from injection of the compounds into the buffer. Data were fitted using the single-site binding model within the Origin software 7.0 package (MicroCal, Inc.) or the independent model within the Nano-Analyze software package (TA, Inc.).

SMN Tudor domain = target: T2, SMN Tudor domain (Homo sapiens, UniProt Q16637); assay: ITC binding to Tudor domain of SMN
T2 construct: SMN (aa 82–147); His (N, cleaved yes); made in house; host or cells: E. coli BL21 (DE3) Codon plus RIL
Description: as §1, §2

SMN = target: T3, SMN (Homo sapiens, UniProt Q16637); assay: Biotin-Cmpd 1 pulldown from U2OS cell lysates and western blotting, SMN; format: binding; conditions: U2OS cell lysate, 20 μM biotin-Cmpd 1, overnight 4 °C (Fig. 2c, Supplementary Fig. 6)
T3 construct: endogenous in cells; host or cells: U2OS
Protocol: (§3) U2OS cells were lysed in RIPA buffer (140 mM NaCl, 10 mM Tris-HCl, pH 7.6, 1% Triton, 0.1% sodium deoxycholate, 1 mM EDTA) containing protease inhibitors (Roche, 05892791001). The cell lysate was incubated with 20 μM biotin-Cmpd 1 overnight at 4 °C, then 30 μL streptavidin beads (Thermo Fisher, 20353) was added and incubated at 4 °C for 1 h. The beads were then washed with RIPA buffer for 3 times, 10 min/time and loading buffer was added and boiled for 5 min for elution. The eluted samples were separated by SDS-PAGE for western blotting (SMN monoclonal antibody, BD Transduction Laboratories, 610646, clone No. 8, dilution of 1:1000; TDRD3 rabbit monoclonal antibody, Cell signaling, 5492, clone No. 5492, dilution of 1:1000; SND1 polyclonal antibody, Bethyl, A302-883A, dilution of 1:2000; RFP polyclonal antibody, Abcam, ab62341, dilution of 1:1000; GFP monoclonal antibody, Santa Cruz Biotechnology, sc-9996, dilution of 1:1000; Streptavidin-Horseradish Peroxidase (HRP), Invitrogen, SA10001, dilution of 1:5000) as previously described[52],[53]. For the competition analysis, 200 μM biotin-free compound 1 or compound 15 was added at the same time when the biotin-Cmpd 1 was incubated with the cell lysates.

SMN cage mutants = assay: Biotin-Cmpd 1 pulldown from U2OS cell lysates, SMN cage mutants; format: binding, human; conditions: U2OS cell lysate, 20 μM biotin-Cmpd 1 (Fig. 2d)
Protocol: as §3

TDRD3 = TDRD3 (Homo sapiens, UniProt Q9H7E2); assay: Biotin-Cmpd 1 pulldown from U2OS cell lysates and western blotting, TDRD3; format: binding; design: endogenous in cells; host or cells: U2OS; conditions: U2OS cell lysate, 20 μM biotin-Cmpd 1 (Fig. 2c, Supplementary Fig. 6)
Protocol: as §3

SND1 = target: T4, SND1 (Homo sapiens, UniProt Q7KZF4); assay: Biotin-Cmpd 1 pulldown from U2OS cell lysates and western blotting, SND1; format: binding; conditions: U2OS cell lysate, 20 μM biotin-Cmpd 1 (Fig. 2c, Supplementary Fig. 6)
T4 construct: endogenous in cells; host or cells: U2OS
Protocol: as §3

[2] = target: R1810me2s-POLR2A (Homo sapiens) (UniProt P24928); conditions: cited from earlier work
[3] = ITC, Tudor domain of SMN wild type, 25 °C, read-out: Kd (SMN)
[4] = ITC, Tudor domain of SMN wild type, 25 °C
[5] = Supplementary Fig. 12, read-out: Kd, binding affinity (determined by ITC) of different compounds to SMN

TDRD3, sequence (Q9H7E2 whole entry): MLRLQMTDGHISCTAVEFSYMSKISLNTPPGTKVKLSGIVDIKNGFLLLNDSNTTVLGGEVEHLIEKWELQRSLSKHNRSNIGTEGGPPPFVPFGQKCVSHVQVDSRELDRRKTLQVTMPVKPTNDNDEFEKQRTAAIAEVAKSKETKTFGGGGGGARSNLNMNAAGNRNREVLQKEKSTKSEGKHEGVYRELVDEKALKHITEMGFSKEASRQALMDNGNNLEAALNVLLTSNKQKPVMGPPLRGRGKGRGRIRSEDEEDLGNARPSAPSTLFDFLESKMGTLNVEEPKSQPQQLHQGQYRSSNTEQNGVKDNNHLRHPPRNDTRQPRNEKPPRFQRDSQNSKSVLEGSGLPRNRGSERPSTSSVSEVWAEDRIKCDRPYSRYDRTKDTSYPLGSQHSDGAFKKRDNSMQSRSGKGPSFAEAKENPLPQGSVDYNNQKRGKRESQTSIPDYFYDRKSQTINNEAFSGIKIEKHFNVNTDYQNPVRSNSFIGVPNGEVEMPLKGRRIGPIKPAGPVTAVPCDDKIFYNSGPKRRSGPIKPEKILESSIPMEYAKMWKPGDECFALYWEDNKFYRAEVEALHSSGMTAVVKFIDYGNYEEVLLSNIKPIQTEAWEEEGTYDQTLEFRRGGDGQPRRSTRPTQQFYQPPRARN
T4 sequence (Q7KZF4 whole entry): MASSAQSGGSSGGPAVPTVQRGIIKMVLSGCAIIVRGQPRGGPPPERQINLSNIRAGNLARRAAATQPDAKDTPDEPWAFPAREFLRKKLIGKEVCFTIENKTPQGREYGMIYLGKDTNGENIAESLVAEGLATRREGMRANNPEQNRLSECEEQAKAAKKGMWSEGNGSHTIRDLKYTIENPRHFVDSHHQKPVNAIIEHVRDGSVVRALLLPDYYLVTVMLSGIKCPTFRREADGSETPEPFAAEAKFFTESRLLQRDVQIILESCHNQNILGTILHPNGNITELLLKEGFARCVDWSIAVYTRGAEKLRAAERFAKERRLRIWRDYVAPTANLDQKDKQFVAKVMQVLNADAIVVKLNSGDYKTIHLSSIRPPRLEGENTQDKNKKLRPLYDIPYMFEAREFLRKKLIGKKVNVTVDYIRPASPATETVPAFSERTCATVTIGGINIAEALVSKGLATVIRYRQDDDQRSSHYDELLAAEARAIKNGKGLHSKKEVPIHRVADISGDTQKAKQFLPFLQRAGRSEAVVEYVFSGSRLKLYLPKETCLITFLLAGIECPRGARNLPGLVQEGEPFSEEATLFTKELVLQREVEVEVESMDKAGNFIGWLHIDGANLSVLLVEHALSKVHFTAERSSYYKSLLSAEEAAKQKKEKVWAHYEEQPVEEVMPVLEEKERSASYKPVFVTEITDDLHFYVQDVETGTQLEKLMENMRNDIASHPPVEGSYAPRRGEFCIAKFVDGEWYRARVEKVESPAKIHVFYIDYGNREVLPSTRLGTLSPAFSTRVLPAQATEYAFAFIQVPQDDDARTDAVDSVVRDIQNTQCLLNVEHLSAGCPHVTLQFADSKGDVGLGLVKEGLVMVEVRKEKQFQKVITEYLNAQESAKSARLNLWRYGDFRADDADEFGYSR

Kd (UHRF1) [1] | Kd (SMN) (SMN Tudor domain; [4]) | Kd (SMN Tudor domain; [5]) [µM] | Molecule | also measured
No binding | No binding | > 244 | C[C@H]1CCc2ccccc2[C@@H]1N [Compound 13, (1R,2S)-2-methyl-1,2,3,4-tetrahydronaphthalen-1-aminium] | 
No binding | No binding | > 244 | Cn1ccc(=N)cc1 [Compound 20, 1-methylpyridin-4(1H)-imine] | 
No binding | No binding | > 244 | N=C(N)N1CCC(Cc2ccccc2)CC1 [Compound 17, 4-benzylpiperidine-1-carboximidamide] | 
No binding | No binding | > 244 | CN1CC[C@H](N)c2ccccc21 [Compound 15, (S)-1-methyl-1,2,3,4-tetrahydroquinolin-4-aminium] | 
No binding | No binding | > 244 | C[C@H]1CC[C@@H](N)c2ccccc21 [Compound 14, (1R,4S)-4-methyl-1,2,3,4-tetrahydronaphthalen-1-aminium] | 
No binding | No binding | > 244 | N=C(N)c1ccc(N)cc1 [Compound 19, 4-aminobenzimidamide] | 
No binding | No binding | > 244 | CN1CC[C@H](CN)c2ccccc21 [Compound 16, (S)-(1-methyl-1,2,3,4-tetrahydroquinolin-4-yl)methanaminium] | 
No binding | No binding | > 244 | CCN(CC)c1ccc(C(=N)N)cc1 [Compound 18, 4-(diethylamino)benzimidamide] | 

More lines, now with the values behind:

Molecule | Kd (UHRF1) [1] | Kd (SMN) (SMN Tudor domain; [4]) | Kd (SMN Tudor domain; [5]) [µM] | also measured
N=c1c2c(n(Cc3ccc(F)cc3)c3c1CCC3)CCC2 [Compound 4, 4-(4-fluorobenzyl)-2,3,4,5,6,7-hexahydrodicyclopenta[b,e]pyridin-8(1H)-imine] | No binding |  |  | Kd (SMN Tudor domain; [3]): 13 ± 1 µM
CCOC(=O)Cn1c2c(c(=N)c3c1CCC3)CCC2 [Compound 3, ethyl 2-(8-imino-2,3,5,6,7,8-hexahydrodicyclopenta[b,e]pyridin-4(1H)-yl)acetate] | No binding |  |  | Kd (SMN Tudor domain; [3]): 31 ± 2 µM
C[C@H]1Cc2ccccc2[C@@H]1N [Compound 10, (1R,2S)-2-methyl-2,3-dihydro-1H-inden-1-aminium] | No binding | No binding | > 244 | 
N=c1c2c(n(CC(=O)NCCOCCOCCOCCNC(=O)CCCC[C@@H]3SC[C@@H]4NC(=O)N[C@@H]43)c3c1CCC3)CCC2 [biotin-Cmpd 1] |  |  |  | pulldown of SMN from cell lysates (SMN): efficiently captured; pulldown of SMN from cell lysates (SMN; listed as Biotin-Cmpd 1): selectively chemiprecipates SMN; pulldown of SMN cage mutants from cell lysates (SMN cage mutants): could not efficiently pull down; pulldown of TDRD3 from cell lysates (TDRD3): neither TDRD3 nor SND1 could be detected; pulldown of SND1 from cell lysates (SND1): neither TDRD3 nor SND1 could be detected; Kd (SMN Tudor domain; Supplementary Figs. 2, 4 and 11a (VP-ITC), read-out: Kd, ITC binding curve, Tudor domain of SMN): 87 ± 12 µM
NC[C@H]1CCc2ccccc21 [Compound 11, (S)-(2,3-dihydro-1H-inden-1-yl)methanaminium] | No binding | No binding | > 244 | 
CN[C@@H]1CCc2ccccc21 [Compound 9, (R)-N-methyl-2,3-dihydro-1H-inden-1-aminium] | No binding | No binding | > 244 | 
Cc1cc(=N)c2ccccc2n1C [Compound 6, 1,2-dimethylquinolin-4(1H)-imine] | Weak binding |  |  | Kd (SMN Tudor domain; [3]): 12 ± 2 µM
CCCCc1c(CCC)c(=N)c2ccccc2n1C [Compound 5, 2-butyl-1-methyl-3-propylquinolin-4(1H)-imine] | No binding |  |  | Kd (SMN Tudor domain; [3]): 12 ± 1 µM
Nc1cccc2ccsc12 [Compound 12, benzo[b]thiophen-7-amine] | No binding | No binding | > 244 | 
Nc1cccc2cccnc12 [Compound 8, quinolin-8-amine] | No binding | No binding |  | Kd (SMN Tudor domain): > 244 µM
Nc1cccc2ocnc12 [Compound 7, benzo[d]oxazol-4-amine] | No binding | No binding | > 244 | 
SMN Tudor (from UniProt Q16637) |  |  |  | Kd [2]: 175 µM

Source: paper PMC9481570, “A small molecule antagonist of SMN disrupts the interaction between SMN and RNAP II” (Nature Communications, 2022)
